The values below are quoted from earlier work in EP0959130A1, “Cloning and expression of a new glucoamylase gene from endomyces fibuliger” (SOCIETE DES PRODUITS NESTLE S.A., priority 1998, dated 1999).

For series [1], the system named is Glucoamylase II from E.fibuliger IFO 0111. To be noted: purified Glucoamylase II; from Futatsugi et al., 1993; read-out: Km for maltose.
Series [2] has as its system Glucoamylase I from E.fibuliger IFO 0111. To be noted: purified Glucoamylase I; from Futatsugi et al., 1993; read-out: Km for maltose.

`OC[C@H]1O[C@H](O[C@H]2[C@H](O)[C@@H](O)C(O)O[C@@H]2CO)[C@H](O)[C@@H](O)[C@@H]1O` (mixture of isomers) [maltose]: the Michaelis-Menten constant (Km) in series [1] was 2.6 mM; in series [2], 8.3 mM.
